We go through seven molecules from patent publication US7101707B2, “Secondary sprouting for isolation and expansion of endothelial sprout cells and endothelial precursor cells from a mixed population and for screening substances” (Cedars-Sinai Medical Center, priority 2002, dated 2006).

Entries after “also recorded” stand apart in the source; their conditions may differ. Numbered stars: 1 amine (or outer) side, 2 acyl side, 3 side chain; on linkers, the order of the positions; unused ones are H or OH. Bridge positions count the residues as written; N and C are the ends. Square brackets hold non-standard residues; d marks the D form. Peptide text beside a SMILES is read from it. I, II: the chains in the order shown. Actinocin(9to1) = Cc1c2oc3c(C)ccc(C(=O)[*:1])c3nc-2c(C(=O)[*:2])c(N)c1=O; NMeV = CN[C@H](C(=O)O)C(C)C; Sar = CNCC(=O)O

The test system of one experiment is human REC. Kind of experiment: Gene array analysis of growth factor action on normal and DR REC. In kind it is cell-based. Particulars: 10 ng/mL, 7 days, 0.5% serum. The method, then:
Normal REC and DR REC gene expression patterns were compared by gene array analysis. Normal, diabetic and DR autopsy human eyes are obtained from National Disease Research Interchange (NDRI), within 24 hours after death. These eyes are used to isolate REC for culture as described hereinabove. Cultures can be used up to the fourth passage, and viable cultures can be cryogenically stored. Cultures of normal, diabetic and DR REC are established from autopsy human eyes and routinely checked for purity using von Willebrand factor immunostaining as described hereinabove. Cells are cultured in 50% F-12, 50% low-glucose DMEM with antibiotics/antimycotics (GIBCO/BRL), insulin-transferrin-selenite, ECGS (Sigma Chemical Co.), and 20% FCS. Statistical analysis of results is done with GraphPad Prism software (GraphPad Software).
In experiments, normal, diabetic, and DR REC were grown for seven days with or without 10 ng/ml VEGF, or 10 ng/mL IGF-I, or 10 ng/mL each VEGF and IGF-I, in medium with 0.5% serum. Long-term rather than short-term treatment was chosen because diabetes develops over a considerable time period. RNA isolated from REC was reverse-transcribed using Smart™ cDNA synthesis method (Clontech), to produce full-length cDNA. Two normal cases or two DR cases were pooled together. This cDNA was PCR-amplified with a short number of cycles and used as a probe for Clontech Atlas Human 1.2 1,200-gene arrays, according to the manufacturer's instructions. This technique had previously been refined and verified by Northern analysis and fully correlated gene array data with protein expression. (Spirin K S et al., Analysis of gene expression in human bullous keratopathy corneas containing limiting amounts of RNA, Invest. Ophthalmol. Vis. Sci. 40:3108–3115 [1999]). Samples were normalized to several housekeeping genes and the analysis was done with available AtlasImage 2.0 software (Clontech). Signal ratio >2 between samples was considered significant as per manufacturer's recommendation.

Experiment [1] concerns bovine REC. Briefly: Migration (wound healing) assay. In kind it is cell-based. Particulars: for effect of growth factors on REC migration: growth factors 10 ng/mL each; for effect of kinase inhibitors on migration: basal and growth factor-stimulated (CK2 blockers), H-7 preliminary, not shown. The method, then:
Migration assay. REC migration rates were examined in a wound healing assay, where cells migrate over time into the scrape wound in a monolayer. Briefly, cells were seeded in 24-well plates and allowed to reach confluence in growth medium. Prior to growth factor treatment, cells were serum-starved overnight in incomplete BREC medium with 0.5% FCS. All monolayers within an experiment were wounded with a single sterile wood stick of constant diameter, to ensure uniformity in the wound areas among different treatments. Wounded monolayers were then rinsed with low-serum medium to remove detached cells and treated with various combinations of human growth factors at 10 ng/mL each. On day 7, cells were rinsed 3× with PBS and fixed with methanol for 15 min, rehydrated with dH2O and stained with Meyer's hematoxylin for 5 min, followed by destaining with dH2O. All wells were photographed with a 4× or 10× objective using a Kodak MDS 100 digital camera attached to a Leitz DM IL inverted microscope. The original wound area was measured at 0 hr and used as a baseline for comparison to the treated wells at the conclusion of the experiment. The number of cells migrated into the wound was determined. Migrating cell counting was automated using the AAB (Advanced American Biotechnology, Fullerton, Calif.) software. Data were calculated and statistically analyzed (Spirin K S et al., Basement membrane and growth factor gene expression in normal and diabetic human retinas, Curr. Eye Res. 18:490–499 [1999]) relative to control cultures that received the same concentrations of bovine serum albumin instead of growth factors and/or inhibitor, compared to vehicle instead of inhibitor after wounding. Inhibitors were added 30 min before growth factors.

In experiment [2] the test system is bovine REC. Briefly: REC survival assay (MTS, low serum). Format: cell-based. Particulars: for effect of growth factors on REC survival: growth factors 10 ng/mL each. How it is done:
(§1) REC proliferation and survival assays. 96-well plates were coated with various amounts of TN-C or vehicle. 5×10^3 cells were added to each triplicate well in low-serum REC medium with various amounts of growth factors (0.5% FCS incomplete BREC medium containing 10 ng/ml of human IGF-I, FGF-2, VEGF, PlGF and PDGF-BB [R&D Systems Inc., Minneapolis, Minn.]). Cell numbers were determined on days 4–7 using the MTS cell proliferation assay (Promega Corp.) according to manufacturer's instructions. Survival was measured in the same way using high glucose (30 mM) or chemical hypoxia (2 mM sodium azide) or serum-free medium to induce cell death. Cell numbers were determined on days 4–7 using MTS assay (Promega).

The test system of experiment [3] is bovine REC. Briefly: REC proliferation assay (MTS). In kind it is cell-based. The note with it: for effect of kinase inhibitors on proliferation: basal and growth factor-stimulated (CK2 blockers), H-7 preliminary, not shown. How it is done: as §1
The subject of experiment [4] is bovine REC. Briefly: Secondary sprouting assay on reconstituted basement membrane matrix (MTS). Format: cell-based. Particulars: for effect of kinase inhibitors on secondary sprouting: basal and growth factor-stimulated (CK2 blockers), H-7 preliminary, not shown. How it is done:
(§2) In vitro MATRIGEL™ biological cell culture substrate assay of capillary-like tube formation and secondary sprouting. […] Briefly, 50 μL of reconstituted basement membrane matrix from mouse EHS tumor (BD or GFR MATRIGEL™ biological cell culture substrate; Becton Dickinson Labware, Bedford, Mass.) were dispensed with frozen pipettes into each well of a previously frozen, sterile 96-well plate sitting on wet ice and allowed to solidify for 1 hr at room temperature or 37° C. Approximately 5×10^4 or 7.5×10^4 REC in a 100 μL volume were seeded into each triplicate well. Human recombinant or purified growth factors were added to a final concentration of 10 ng/mL (or as noted) in 0.5% FCS incomplete BREC medium. Capillary-like tube structures formed by REC on reconstituted basement membrane matrix were photographed at various intervals ranging from 12–72 hr; pictures were scanned, digitized and analyzed using image-processing software.
For the secondary sprouting assay, cells on reconstituted basement membrane matrix were seeded as above but incubated in 0.5% FCS incomplete BREC medium without any growth factors for 3 days, allowing for tube formation and collapse. On day 3, human recombinant or purified growth factors were added to a final concentration of 10 ng/mL (or as noted) in low-serum incomplete BREC medium and incubated for another 5–6 days. Digital photographs were obtained with a Kodak MDS 100 camera attached to a Leitz DM IL inverted microscope. Digitized images obtained with a Kodak MDS 100 video camera were stored on compact discs and quantified with NIH Image 1.62 software. The number of living cells in the sprouting colonies were determined using the MTS cell proliferation assay.
A good correlation was observed between the spherical volume and the number of live cells in secondary sprouting colonies (not shown). Since the latter is an easy parameter to test by using the MTS assay, it was adopted as a faster method for studying the effect of various agents on secondary sprouting.

The test system of experiment [5] is REC. Kind of experiment: Capillary-like tube formation on MATRIGEL
In kind it is cell-based, bovine. The note with it: for effect of kinase inhibitors on tube formation: basal and growth factor-stimulated (CK2 blockers), H-7 preliminary, not shown. How it is done:
as §2

The test system of experiment [6] is retinal neovascularization. Kind of experiment: Oxygen-induced retinopathy in newborn mice. Format: in vivo, mouse.
Experiment [7] relates to REC. Briefly: Angiogenic assays taken together (proliferation, secondary sprouting, migration, tube formation). Format: cell-based, bovine. Particulars: all assays. How it is done:
Treatment of REC cultures. Duplicate REC cultures on plastic (for migration) or MATRIGEL™ biological cell culture substrate with the same number of cells per dish are treated with previously established working concentrations of signaling inhibitors and/or select growth factor combinations. Treatments begin at the time of seeding the cells and medium is changed every other day. Single growth factors are used as negative controls since their modulation of TN-C effects was minimal. Working growth factor concentrations were as follows: VEGF, 1–50 ng/mL depending on the assay; PlGF, 100 ng/mL; FGF-2, 10–100 ng/mL; IGF-I, 25–100 ng/mL; PDGF-BB, 10–100 ng/mL. When used as combinations, each growth factor was supplied at 10 ng/mL for optimum synergy. The already tested inhibitors of signaling molecules (Sigma, Calbiochem, BIOMOL) were used at the following optimized doses: protein kinase A (inhibitor: H89 [25 μM]), PKC (inhibitor: calphostin C [2.5 μM]), PKC-β (inhibitor: LY379196 [50 nM]), Ca^2+/calmodulin kinase II (inhibitor: KN-93 [0.5 μM]), CK1 (inhibitor: CKI-7 [50 μM]), MEK-ERK (inhibitor: PD98059 [10 μM]), p38 MAP kinase (inhibitor: SB202190 [10 μM]), PI3 kinase (inhibitor: wortmannin [100 nM]), CK2 (inhibitors: emodin [20–25 μM] and DRB [20–25 μM]), CK2 and other kinases (inhibitor: quercetin [50 μM]); and a negative control for kinase inhibition (SB202474 [10 μM]). […]

Consider VEGF, for which, in the experiment with human REC, the “expression of pro-apoptotic genes” value was “did not display an increase”, the “expression of proliferation-related genes” value is recorded as “upregulated” and the “expression of various phosphatases” value is reported as “downregulated”. In the experiment with bovine REC [1], the “effect of growth factors on REC migration” value (shortened to “effect … on REC migration”) is reported as “significantly enhanced”. The “effect of growth factors on REC survival” value in the experiment on bovine REC [2] is listed as “little effect”.

With `CC1CNCCN1S(=O)(=O)c1cccc2cnccc12` (centres unmarked) [H-7], the “effect of kinase inhibitors on proliferation” value in the experiment with bovine REC [3] is listed as “inhibited”. Further, the “effect of kinase inhibitors on migration” value in the experiment with bovine REC [1] is “inhibited”. Moreover, the “effect of kinase inhibitors on secondary sprouting” value in the experiment on bovine REC [4] was “inhibited”. Also, the “effect of kinase inhibitors on tube formation” value in the experiment with REC [5] is on record as “stabilized REC tubes”.

As for “IGF-I: insulin-like growth factor (IGF)-I”, the “expression of pro-apoptotic genes” value in the experiment with human REC is reported as “decrease”. For the same molecule, the “effect … on REC migration” value with bovine REC [1] is recorded as “the opposite”. The “effect of growth factors on REC survival” value in the experiment on bovine REC [2] is “the opposite”.

For the molecule `OC[C@H]1O[C@@H](n2cnc3cc(Cl)c(Cl)cc32)[C@H](O)[C@@H]1O` [DRB, 5,6-dichloro-1-β-D-ribofuranosylbenzimidazole], the “diminution of retinal neovascularization (preretinal nuclei count)” value in experiment [6] (two intraperitoneal injections daily, day 11 to 17 after birth, emodin 20–30 μg/g, vs untreated or vehicle) is “about 60%”. The “effect of kinase inhibitors on proliferation” value in the experiment on bovine REC [3] is recorded as “potently inhibited”. Moreover, the “number of live cells, proliferation” value in the experiment on bovine REC [3] (bovine REC, 10% serum, various concentrations, day 6, MTS) is recorded as “significantly lowers cell number”. For the same molecule, the “effect of kinase inhibitors on migration” value in the experiment on bovine REC [1] is listed as “potently inhibited”. Besides, in the experiment on bovine REC [1] (four GFs 10 ng/ml each, 7 days, 0.5% serum, emodin 10 μM, DRB 15 μM), the “effect on growth factor-mediated cell migration” value is reported as “significant inhibitory effect”. Also, in the experiment with bovine REC [4], the “effect of kinase inhibitors on secondary sprouting” value was “potently inhibited”. Moreover, in the experiment on bovine REC [4] (bovine REC on MATRIGEL, 0.5% serum, day 9, MTS), the “concentration from which live cell number in secondary sprouting is significantly decreased” value is at least 25 µM. The “number of live cells, survival” value with bovine REC [2] (bovine REC, 0.5% serum, various concentrations, day 6, MTS) is given as “significantly lowers cell number”. Moreover, in the experiment with REC [5], the “effect of kinase inhibitors on tube formation” value is listed as “potently inhibited”.

For `Cc1c2oc3c(C)ccc(C(=O)N[C@@H]4C(=O)N[C@H](C(C)C)C(=O)N5CCC[C@H]5C(=O)N(C)CC(=O)N(C)[C@@H](C(C)C)C(=O)O[C@@H]4C)c3nc-2c(C(=O)N[C@@H]2C(=O)N[C@H](C(C)C)C(=O)N3CCC[C@H]3C(=O)N(C)CC(=O)N(C)[C@@H](C(C)C)C(=O)O[C@@H]2C)c(N)c1=O` [Actinomycin D] (I: T[dV]P[Sar][NMeV] / II: T[dV]P[Sar][NMeV]; ester I:1-I:C, II:1-II:C; linker I:N-II:N via Actinocin(9to1)), the “effect of inhibitors in angiogenic assays” value with REC [7] is on record as “only minor changes”.

Take `O=c1c(O)c(-c2ccc(O)c(O)c2)oc2cc(O)cc(O)c12` [quercetin]: the “effect on retinal neovascularization” value in experiment [6] (intramuscular injections, data not shown) is recorded as “substantial effect”. Further, the “effect of kinase inhibitors on proliferation” value in the experiment on bovine REC [3] is “potently inhibited”. The “effect of kinase inhibitors on migration” value with bovine REC [1] was “potently inhibited”. Further, in the experiment on bovine REC [4], the “effect of kinase inhibitors on secondary sprouting” value is “potently inhibited”. In addition, in the experiment on REC [5], the “effect of kinase inhibitors on tube formation” value was “potently inhibited”.

For “FGF-2: fibroblast growth factor (FGF)-2, angiogenic growth factor”, in the experiment on bovine REC [1], the “effect … on REC migration” value was “little or no effect”. For the same molecule, the “morphology of sprouting colonies after growth factor treatment” value in the experiment with bovine REC [4] (10 ng/mL) is “longer and sparser sprouts”. For the same molecule, in the experiment with bovine REC [4] (10 ng/mL, 0.5% FCS medium), the “effect of growth factors on secondary sprouting (live cell number)” value is given as “potently stimulated; also recorded: pro-angiogenic; also recorded: dramatic increase; also recorded: greatly enhanced”. In addition, the “stimulation of secondary sprouting (fold, on average)” value in the experiment on bovine REC [4] (growth factors, live cells by MTS) is “four-fold”. Further, the “effect of growth factors on tube formation” value in the experiment on REC [5] (growth factors 10 ng/mL each) is reported as “little or no effect”.
